The results in this text go back to article PMC11844072, “Novel 5,6-dichlorobenzimidazole derivatives as dual BRAFWT and BRAFV600E inhibitors: design, synthesis, anti-cancer activity and molecular dynamics simulations” (BMC Chemistry, 2025).

Bounds are passed on as bounds.

In one assay the test system is A498. As to the kind of experiment: NCI 5-dose assay. The settings on record: Homo sapiens; A498, Renal cancer. The format is cell-based. On the procedure: (§1) The synthesized dichlorobenzimidazoles 10a–p were assayed for their influence on divers cancer cell lines according to the method presented in the Additional file A.
(§2) 5. Screening of cytotoxic activity against a panel of sixty human tumor cell lines
(§3) The selected compounds by NCI were evaluated for their anticancer activity in a two-stage process. First, these compounds were screened against the full NCI 60 cell lines panel at a single high dose of 10 µM. Then, the output from the single dose screen is reported as a mean graph. […]
(§4) at five different minimal concentrations.
(§5) Assay protocol. The human tumor cell lines of the cancer screening panel are grown in RPMI 1640 medium containing 5% fetal bovine serum and 2 mM L-glutamine. For a typical screening experiment, cells are inoculated into 96 well microtiter plates in 100 µL at plating densities ranging from 5000 to 40,000 cells/well depending on the doubling time of individual cell lines. After cell inoculation, the microtiter plates are incubated at 37 °C, 5% CO 2, 95% air and 100% relative humidity for 24 h prior to addition of the experimental drugs.
(§6) After 24 h, two plates of each cell line are fixed in situ with TCA, to represent a measurement of the cell population for each cell line at the time of drug addition (Tz). The experimental drugs are solubilized in dimethyl sulfoxide at 400-fold the desired final maximum test concentration and stored frozen prior to use. At the time of drug addition, an aliquot of frozen concentrate is thawed and diluted to twice the desired final maximum test concentration with complete medium containing 50 µg/mL gentamicin. Additional four, 10-fold or ½ log serial dilutions are made to provide a total of five drug concentrations plus control.
(§7) Aliquots of […] of these different drug dilutions are added to the appropriate microtiter wells already containing […] of medium, resulting in the required final drug concentrations.
(§8) Following drug addition, the plates are incubated for an additional 48 h at 37 °C, 5% CO 2, 95% air, and 100% relative humidity. For adherent cells, the assay is terminated by the addition of cold TCA.
(§9) Cells are fixed in situ by the gentle addition of 50 µL of cold 50% (w/v) TCA (final concentration, 10% TCA) and incubated for 60 min at 4 °C. The supernatant is discarded, and the plates are washed five times with tap water and air dried. Sulforhodamine B (SRB) solution ([…]) at 0.4% (w/v) in 1% acetic acid is added to each well, and plates are incubated for 10 min at room temperature. After staining, unbound dye is removed by washing five times with 1% acetic acid and the plates are air dried. Bound stain is subsequently solubilized with 10 mM trizma base, and the absorbance is read on an automated plate reader at a wavelength of 515 nm. For suspension cells, the methodology is […]
(§10) the same except that the assay is terminated by fixing settled cells at the bottom of the wells by gently adding 50 µl of 80% TCA (final concentration, 16% TCA). Using the seven absorbance measurements [time zero, (Tz), control growth, (C), and test growth in the presence of drug at the five concentration levels (Ti)], the percentage growth is calculated at each of the drug concentrations […]
(§11) Percentage growth inhibition is calculated as: [(Ti Tz)/(C–Tz)] x 100 for concentrations for which Ti>/=Tz and [(Ti-Tz)/Tz] x 100 for concentrations for which Ti < Tz.
(§12) Three dose response parameters are calculated for each experimental agent. Growth […]
(§13) concentration resulting in a 50% reduction in the net protein increase (as measured by SRB staining) in control cells during the drug incubation. The drug concentration resulting in total growth inhibition (TGI) is calculated from Ti = Tz. […]
(§14) reduction in the measured protein at the end of the drug treatment as compared to that at the beginning) indicating a net loss of cells following treatment is calculated from [(Ti–Tz)/Tz] x 100 =
(§15) _50. Values are calculated for each of these three parameters if the level of activity is reached; […]

The next assay has as its system ACHN. As to the kind of experiment: NCI 5-dose assay. The format is cell-based. To be noted: Homo sapiens, Renal cancer. As to the method:
as §1, §2, §3, §4, §5, §6, §7, §8, §9, §10, §11, §12, §13, §14, §15

Another assay relates to CCRF-CEM. As to the kind of experiment: NCI 5-dose assay. To be noted: Homo sapiens, Leukemia. The format is cell-based. As to the method:
as §1, §2, §3, §4, §5, §6, §7, §8, §9, §10, §11, §12, §13, §14, §15

A further assay deals with COLO 205. As to the kind of experiment: NCI 5-dose assay. The format is cell-based. To be noted: Homo sapiens; COLO 205, Colon cancer. As to the method: as §1, §2, §3, §4, §5, §6, §7, §8, §9, §10, §11, §12, §13, §14, §15
The subject of the next assay is HCT-15. As to the kind of experiment: NCI 5-dose assay. Format: cell-based. To be noted: Homo sapiens; HCT-15, Colon cancer. As to the method: as §1, §2, §3, §4, §5, §6, §7, §8, §9, §10, §11, §12, §13, §14, §15
A further assay concerns HOP-62. The assay can be described thus: NCI 5-dose assay. The settings on record: Homo sapiens; HOP-62, Non-small cell lung cancer. Format: cell-based. On the procedure:
as §1, §2, §3, §4, §5, §6, §7, §8, §9, §10, §11, §12, §13, §14, §15

The test system of a further assay is MDA-MB-435. As to the kind of experiment: NCI 5-dose assay. The format is cell-based. To be noted: Homo sapiens; MDA-MB-435, Melanoma. As to the method:
as §1, §2, §3, §4, §5, §6, §7, §8, §9, §10, §11, §12, §13, §14, §15

The subject of the next assay is MOLT-4. The assay can be described thus: NCI 5-dose assay. Format: cell-based. The settings on record: Homo sapiens; MOLT-4, Leukemia. As to the method: as §1, §2, §3, §4, §5, §6, §7, §8, §9, §10, §11, §12, §13, §14, §15
A further assay relates to NCI-H226. As to the kind of experiment: NCI 5-dose assay. The format is cell-based. To be noted: Homo sapiens; NCI-H226, Non-small cell lung cancer. As to the method: as §1, §2, §3, §4, §5, §6, §7, §8, §9, §10, §11, §12, §13, §14, §15
For another assay, the system named is OVCAR-3. As to the kind of experiment: NCI 5-dose assay. Format: cell-based. The settings on record: Homo sapiens; OVCAR-3, Ovarian cancer. On the procedure:
as §1, §2, §3, §4, §5, §6, §7, §8, §9, §10, §11, §12, §13, §14, §15

The next assay concerns RPMI-8226. The assay can be described thus: NCI 5-dose assay. Format: cell-based. To be noted: Homo sapiens; RPMI-8226, Leukemia. On the procedure:
as §1, §2, §3, §4, §5, §6, §7, §8, §9, §10, §11, §12, §13, §14, §15

A further assay relates to SNB-19. The assay can be described thus: NCI 5-dose assay. The format is cell-based. The settings on record: Homo sapiens; SNB-19, CNS cancer. As to the method:
as §1, §2, §3, §4, §5, §6, §7, §8, §9, §10, §11, §12, §13, §14, §15

Another assay relates to SNB-75. The assay can be described thus: NCI 5-dose assay. Format: cell-based. The settings on record: Homo sapiens; SNB-75, CNS cancer. On the procedure: as §1, §2, §3, §4, §5, §6, §7, §8, §9, §10, §11, §12, §13, §14, §15
The test system of a further assay is SR. The assay can be described thus: NCI 5-dose assay. Format: cell-based. To be noted: Homo sapiens, Leukemia. On the procedure:
as §1, §2, §3, §4, §5, §6, §7, §8, §9, §10, §11, §12, §13, §14, §15

Another assay concerns T-47D. The assay can be described thus: NCI 5-dose assay. Format: cell-based. To be noted: Homo sapiens, T47D, Breast cancer. On the procedure:
as §1, §2, §3, §4, §5, §6, §7, §8, §9, §10, §11, §12, §13, §14, §15

The subject of a further assay is U251. As to the kind of experiment: NCI 5-dose assay. Format: cell-based. To be noted: Homo sapiens, U-251; U251, CNS cancer. On the procedure:
as §1, §2, §3, §4, §5, §6, §7, §8, §9, §10, §11, §12, §13, §14, §15

The next assay concerns the target FGFR-1 (Homo sapiens, UniProt P11362). The assay can be described thus: FGFR-1 kinase assay (Kinase-Glo Max luminescence). Background: In Kinase-Glo more light means more ATP remaining.
In a further assay the target is VEGFR-2 (Homo sapiens, UniProt P35968). The assay can be described thus: VEGFR-2 kinase assay (Kinase-Glo Max luminescence).
Sequence of VEGFR-2 (P35968 20-1356): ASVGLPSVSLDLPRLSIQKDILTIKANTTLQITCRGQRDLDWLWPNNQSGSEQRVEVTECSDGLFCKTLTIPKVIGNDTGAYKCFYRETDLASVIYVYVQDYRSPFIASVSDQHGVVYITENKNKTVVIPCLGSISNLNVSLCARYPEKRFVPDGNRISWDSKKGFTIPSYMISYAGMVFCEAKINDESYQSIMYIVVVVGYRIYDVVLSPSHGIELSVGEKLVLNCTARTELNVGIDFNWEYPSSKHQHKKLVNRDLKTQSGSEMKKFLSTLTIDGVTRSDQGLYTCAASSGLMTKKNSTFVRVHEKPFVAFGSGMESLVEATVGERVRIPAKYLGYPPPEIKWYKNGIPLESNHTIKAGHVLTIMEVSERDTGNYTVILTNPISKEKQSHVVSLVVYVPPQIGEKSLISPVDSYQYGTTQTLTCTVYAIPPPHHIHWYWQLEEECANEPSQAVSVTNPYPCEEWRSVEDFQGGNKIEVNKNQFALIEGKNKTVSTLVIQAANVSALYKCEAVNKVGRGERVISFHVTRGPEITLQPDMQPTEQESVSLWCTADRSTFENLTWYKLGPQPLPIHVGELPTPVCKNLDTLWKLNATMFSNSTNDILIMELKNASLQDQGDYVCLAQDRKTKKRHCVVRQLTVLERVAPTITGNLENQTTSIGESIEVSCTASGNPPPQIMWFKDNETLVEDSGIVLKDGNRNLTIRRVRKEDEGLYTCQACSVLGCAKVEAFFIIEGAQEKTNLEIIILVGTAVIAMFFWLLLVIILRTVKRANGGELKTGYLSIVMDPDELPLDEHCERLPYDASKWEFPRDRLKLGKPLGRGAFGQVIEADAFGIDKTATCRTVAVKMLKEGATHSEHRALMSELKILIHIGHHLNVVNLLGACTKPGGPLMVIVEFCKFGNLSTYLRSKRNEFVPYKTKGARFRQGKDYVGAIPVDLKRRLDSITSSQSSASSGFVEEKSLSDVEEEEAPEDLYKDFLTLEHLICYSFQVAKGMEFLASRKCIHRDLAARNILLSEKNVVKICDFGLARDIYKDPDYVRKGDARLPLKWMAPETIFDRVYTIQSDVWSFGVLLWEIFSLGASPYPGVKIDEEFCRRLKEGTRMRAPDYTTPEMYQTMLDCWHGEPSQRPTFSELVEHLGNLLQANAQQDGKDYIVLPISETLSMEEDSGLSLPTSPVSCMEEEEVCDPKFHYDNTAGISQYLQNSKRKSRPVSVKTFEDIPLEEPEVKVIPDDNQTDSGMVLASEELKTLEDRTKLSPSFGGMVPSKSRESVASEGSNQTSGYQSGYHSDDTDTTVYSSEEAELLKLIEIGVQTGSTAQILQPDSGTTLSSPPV

Sequence of FGFR-1 (P11362 22-822): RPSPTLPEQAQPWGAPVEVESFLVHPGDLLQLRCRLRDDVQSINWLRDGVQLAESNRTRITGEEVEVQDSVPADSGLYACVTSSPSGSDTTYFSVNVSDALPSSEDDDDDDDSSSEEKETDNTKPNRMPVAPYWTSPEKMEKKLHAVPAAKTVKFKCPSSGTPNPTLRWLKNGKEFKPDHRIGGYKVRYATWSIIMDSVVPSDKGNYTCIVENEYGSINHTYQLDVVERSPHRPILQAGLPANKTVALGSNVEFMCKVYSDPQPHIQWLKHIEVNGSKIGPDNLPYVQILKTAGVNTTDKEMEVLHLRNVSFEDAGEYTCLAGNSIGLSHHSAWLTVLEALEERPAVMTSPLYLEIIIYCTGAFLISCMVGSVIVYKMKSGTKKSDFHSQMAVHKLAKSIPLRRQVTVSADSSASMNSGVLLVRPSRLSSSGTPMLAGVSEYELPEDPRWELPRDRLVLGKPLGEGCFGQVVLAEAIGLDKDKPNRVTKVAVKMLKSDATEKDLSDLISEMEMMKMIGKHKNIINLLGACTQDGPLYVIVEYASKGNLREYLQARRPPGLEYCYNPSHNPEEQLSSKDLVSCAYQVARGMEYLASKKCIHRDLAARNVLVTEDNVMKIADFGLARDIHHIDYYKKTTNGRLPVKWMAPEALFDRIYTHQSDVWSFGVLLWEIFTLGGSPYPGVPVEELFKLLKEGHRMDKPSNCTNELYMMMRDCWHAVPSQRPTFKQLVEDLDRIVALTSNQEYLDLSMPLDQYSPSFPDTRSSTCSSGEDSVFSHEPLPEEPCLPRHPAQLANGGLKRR
Protocol for FGFR-1: (§16) The inhibitory activity against different kinases was determined using kinase kits (BRAF WT
(§17) Glo Max luminescence kinase assay kit (Promega).
(§18) The assay was carried out according to the protocol provided by the manufacturer. A stock solution of the synthesized derivatives in 100% DMSO was prepared. Subsequently, the compounds were diluted to 10% DMSO.
(§19) A master mixture was prepared according to the number of wells. For BRAF assay each well include 6 μl of 5x Kinase Buffer 1 + 1 μl of ATP (500 μM) + 10 μl of 5X Raf substrate + 8 μl of distilled water. 1x Kinase buffer 1 was prepared by mixing 600 μl of 5x Kinase Buffer 1 with 2400 μl water to give 3 mL. Kinases were thawed on ice and were diluted with 1x Kinase Buffer 1. […]
(§20) The plate was incubated at 30 °C for 45 min. Subsequently, 50 μl of Kinase-Glo Max luminescence reagent was added to each well and the plate was covered with aluminum foil and incubated at room temperature for 15 min. Finally, the luminescence was recorded using multimode microplate reader. […]
(§21) The luminescence data were analyzed as follows. The difference between luminescence intensities in the absence of kinase (Lu t) and in the presence of kinase (Lu c) was defined as 100 %
(§22) calculated as: % activity = {(Lu t - Lu)/(Lut - Luc)} ×100%. The concentration of the test compounds required to reduce the kinase activity by 50% was determined from dose-response curves and
Protocol for VEGFR-2: as §16, §17, §18, §19, §20, §21, §22

By GI50 is commonly meant the concentration giving 50% growth inhibition. Read a low GI50 as more potent growth inhibition. As a reminder, the IC50 is the midpoint of a concentration-inhibition curve. A higher IC50 goes with weaker potency in that assay. Consider `COC(=O)COc1ccc(C=NNC(=O)Cn2c(-c3ccc(OC)cc3)nc3cc(Cl)c(Cl)cc32)cc1` [Compound 10h, Methyl-2-(4-((2-(2-(5,6-dichloro-2-(4-methoxyphenyl)-1H-benzo[d]imidazol-1-yl)acetyl)hydrazono)methyl)phenoxy)acetate], for which the GI50 in the assay on A498 was determined as 15.4 µM; in the assay on ACHN it was 7.84 µM; in the assay with CCRF-CEM it was 4.78 µM; in the assay with COLO 205, 16.5 µM; in the assay on HCT-15 it was 11.2 µM; in the assay with HOP-62, 17.3 µM. The GI50 in the assay on MDA-MB-435 is 14.8 µM; with MOLT-4 it was 5.36 µM; in the assay on NCI-H226, greater than 82.5 µM; in the assay on OVCAR-3, 10.6 µM; with RPMI-8226, 71.2 µM; with SNB-19, greater than 82.5 µM. The GI50 with SNB-75 was 2.14 µM; with SR it was 2.8 µM; with T-47D it was 2.68 µM; with U251 it was 14.1 µM. Also, the concentration for half-maximal inhibition (IC50) on FGFR-1 is greater than 10 µM; against VEGFR-2, 1.52 ± 0.14 µM.

Consider `COC(=O)COc1cc(C=NNC(=O)Cn2c(-c3ccc(OC)cc3)nc3cc(Cl)c(Cl)cc32)ccc1OC` [Compound 10o, Methyl-2-(5-((2-(2-(5,6-dichloro-2-(4-methoxyphenyl)-1H-benzo[d]imidazol-1-yl)acetyl)hydrazono)methyl)-2-methoxyphenoxy)acetate], for which the GI50 in the assay on A498 is greater than 100 µM; with ACHN it was 14.2 µM; with CCRF-CEM, greater than 100 µM; in the assay with COLO 205, greater than 100 µM; with HCT-15, greater than 100 µM; in the assay on HOP-62 it was greater than 100 µM. Besides, the GI50 in the assay on MDA-MB-435 is greater than 100 µM; in the assay on MOLT-4, 14.2 µM; in the assay on NCI-H226 it was greater than 100 µM; in the assay on OVCAR-3, greater than 100 µM; in the assay with RPMI-8226 it was greater than 100 µM; in the assay with SNB-19, greater than 100 µM. Besides, the concentration for 50% growth inhibition (GI50) with SNB-75 was 14.4 µM; in the assay on SR, 3 µM; in the assay on T-47D, 12.7 µM; in the assay on U251 it was greater than 100 µM.

`COC(=O)COc1ccc(C=NNC(=O)Cn2c(-c3ccc(OC)cc3)nc3cc(Cl)c(Cl)cc32)cc1OC` [Compound 10p, Methyl-2-(4-((2-(2-(5,6-dichloro-2-(4-methoxyphenyl)-1H-benzo[d]imidazol-1-yl)acetyl)hydrazono)methyl)-2-methoxyphenoxy)acetate]: the GI50 in the assay with A498 was 11.6 µM; in the assay on ACHN it was 5.42 µM; in the assay on CCRF-CEM, greater than 72.5 µM; in the assay on COLO 205, 18.2 µM; with HCT-15, greater than 72.5 µM; in the assay on HOP-62, greater than 72.5 µM. The GI50 is 22.9 µM with MDA-MB-435; greater than 72.5 µM in the assay on MOLT-4; greater than 72.5 µM in the assay on NCI-H226; greater than 72.5 µM with OVCAR-3; greater than 72.5 µM in the assay with RPMI-8226; greater than 72.5 µM in the assay with SNB-19. The GI50 was 1.73 µM with SNB-75, 2.15 µM in the assay on SR, 4.47 µM in the assay with T-47D and greater than 72.5 µM in the assay on U251.
